Experimental data reported in PubChem BioAssay (NCI).
Values joined by “and” are separate entries in the source; they are usually repeats but may differ in a detail not shown here. Equal entries are not always repeated.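 Interpolation was linear, between the two tested concentrations surrounding the appropriate level; five concentrations were tested over 48 hours in 96-well plates. GI50 marks 50% less growth. TGI denotes the concentration required for complete inhibition of growth.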

What was measured:
Assay in all cases: DTP human tumour cell line panel, 48 h
MOLT-4 leukemia = system: MOLT-4 leukemia
BT-549 breast = system: BT-549 breast
TK-10 renal = system: TK-10 renal
SF-295 CNS = system: SF-295 CNS
UACC-257 melanoma = system: UACC-257 melanoma
SW-620 colon = system: SW-620 colon
SK-MEL-28 melanoma = system: SK-MEL-28 melanoma
DU-145 prostate = system: DU-145 prostate
CCRF-CEM leukemia = system: CCRF-CEM leukemia
NCI-H23 lung = system: NCI-H23 lung

| SMILES | GI50 (MOLT-4 leukemia) [µM] | TGI (MOLT-4 leukemia) [µM] | GI50 (BT-549 breast) [µM] | TGI (BT-549 breast) [µM] | GI50 (TK-10 renal) [µM] | TGI (TK-10 renal) [µM] | GI50 (SF-295 CNS) | TGI (SF-295 CNS) [µM] | GI50 (UACC-257 melanoma) [µM] | TGI (UACC-257 melanoma) [µM] | GI50 (SW-620 colon) [µM] | TGI (SW-620 colon) [µM] | GI50 (SK-MEL-28 melanoma) [µM] | TGI (SK-MEL-28 melanoma) [µM] | GI50 (DU-145 prostate) [µM] | TGI (DU-145 prostate) [µM] | GI50 (CCRF-CEM leukemia) [µM] | TGI (CCRF-CEM leukemia) [µM] | GI50 (NCI-H23 lung) [µM] | TGI (NCI-H23 lung) [µM] |
| --- | --- | --- | --- | --- | --- | --- | --- | --- | --- | --- | --- | --- | --- | --- | --- | --- | --- | --- | --- | --- |
| CCCCCCCCCCCCOC1C(CNC(=O)C2OC3OC(C)(C)OC3C2NC(=O)CN2CCCCCC2)OC2OC(C)(C)OC21 (stereo not drawn) | 3.12 | 9.85 | 9.06 | 22.1 | 8.27 | 22.5 | 6.75 µM | 20.4 | 3.14 | 8.75 | 3.38 | 11.1 | 1.72 | 3.4 | 8.23 | 20.5 | 4.58 | 15.9 | 10.9 | 24.8 |
| COc1ccc(-c2cc(=O)c3c(O)cc(C)cc3o2)cc1OC |  | > 100 |  | > 100 |  | > 100 |  | > 100 |  | > 100 |  | > 100 |  | > 100 |  | > 100 |  | > 100 |  | > 100 |
| CCN1C(=O)N(c2ccccc2)C2NN=c3s/c(=C4\C(=O)N(C(C)C)c5ccccc54)c(=O)n3C21 (stereo not drawn) | 1.58 | > 100 | 1.8 | 18.9 | 4.84 | 49.5 | 0.737 µM | 4.76 | > 51.8 | > 100 | 0.891 | > 100 | 2.71 | > 100 | 1.41 | > 29.4 | 1.16 | > 100 | 1.47 | 28.2 |
| Nc1nc(N)c2nc(CNc3ccc(C(=O)NC(CCCNC(=O)c4ccccc4C(=O)O)C(=O)O)cc3)cnc2n1 (stereo not drawn) | 0.00353 | > 100 |  | > 100 | 0.031 | > 100 | < 0.01 µM and 0.00332 µM |  | 0.0155 | > 100 | 0.000866 | > 100 |  | > 100 |  | > 100 | 0.00148 | > 100 | 0.00401 | > 100 |
| C[C@H]1C(Oc2ccc(O)cc2)OC2OC3(C)CCC4[C@H](C)CCC1C24OO3 (stereo partly drawn) |  | > 63.6 | 8.34 | 23.7 | 15.9 | 37.8 | 16.2 µM | 34.5 | 13.1 | 28.4 | 8.74 | 43.2 | 18.4 | 39.5 | 20.1 | 43.2 | 8.52 | > 100 | 12 | 27.7 |
| C=C(C)[C@@H]1CC[C@]2(COC3CCCCO3)CC[C@]3(C)[C@H](CC[C@@H]4[C@@]5(C)C=C(C=O)C(=O)C(C)(C)[C@@H]5CC[C@]43C)[C@@H]12 (stereo partly drawn) | 1.03 | 29.9 | 1.42 | 2.78 | 1.57 | 2.96 | 1.5 µM | 2.96 | 2.06 | 4.22 | 1.13 | 2.87 | 0.734 | 2.2 | 1.57 | 2.92 | 0.386 | 2.57 | 1.62 | 3.63 |
| CN(C[C@@H]1COCCO1)S(=O)(=O)Nc1ccc2ccc3ncc(-c4cnn(C)c4)cc3c(=O)c2c1 | 4.08 | > 91.3 | 2.01 | > 100 | 2.64 | > 100 | 0.632 µM | > 34.2 | > 100 | > 100 | 4.74 | > 100 | > 66.8 | > 100 | 6.86 | > 100 | 5.65 | > 100 | 1.77 | > 100 |
| O=C1CCc2c(sc3[nH]c(=S)n(Cc4ccccc4)c(=O)c23)C1 | 4.39 | > 100 | 1.82 | 7.35 | 4.51 | > 100 | 2.46 µM | 7.23 | 2.36 | 7.06 | 4.2 | > 100 | 4.4 | > 100 | 5.06 | > 100 | 2.88 | 10.3 | 2.79 | 8.6 |
| CN(CCCl)c1ccc(/C=C/C2=[N+](C)c3ccccc3C2(C)C)cc1 | 0.308 | 1.4 | 0.424 | 4.85 | 2.37 | 14.9 | 0.728 µM | 5.14 | 0.657 | 7.57 | 0.494 | 14 | 0.685 | 15.6 | 0.598 | 15.3 | 0.151 | 5.75 | 0.434 | 11 |
| N#Cc1ccc(C(c2ccc(C#N)cc2)n2cncn2)cc1 | > 5000 | > 5000 |  | > 5000 | 1310 | > 5000 | 182 µM | > 5000 | > 5000 | > 5000 | > 5000 | > 5000 |  | > 5000 | > 5000 | > 5000 | > 5000 | > 5000 | > 5000 | > 5000 |
